Patent US20250092064A1, “BENZOTRIAZOLE COMPOUND” (DAIICHI SANKYO COMPANY, LIMITED, priority 2022, published 2025)
pIC50: −log10 of the molar value.

What was measured:
[1] = tested on: NQO1 activity in Hepa1c1c7 cells; assay: NAD(P)H: quinone oxidoreductase-1 (NQO1) enzyme induction assay (in vitro); type: cell-based, mouse; details: Mus musculus, Hepa-1c1c7, NQO1 activity with 400 nM test compound as a ratio from the base without compound, about 48 hr
Summary of the method: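 Mouse Hepa1c1c7 hepatoma cells treated 48 hr with 400 nM compound (final). NQO1 activity in lysates read by absorbance at 610 nm; value is background-subtracted activity ratio versus untreated cells.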

[2] = biological target: binding between Nrf2 and Keap1 (Homo sapiens (Human), UniProt Q14145); assay: FP assay (in vitro): inhibition of Nrf2-Keap1 binding by fluorescence polarization; details: GST-fused human Keap1 (325-642) 20 nM, FITC-labeled Nrf2 peptide 10 nM, 2 hr at room temperature
binding between Nrf2 and Keap1, sequence (Q14145 325-624 limits assumed): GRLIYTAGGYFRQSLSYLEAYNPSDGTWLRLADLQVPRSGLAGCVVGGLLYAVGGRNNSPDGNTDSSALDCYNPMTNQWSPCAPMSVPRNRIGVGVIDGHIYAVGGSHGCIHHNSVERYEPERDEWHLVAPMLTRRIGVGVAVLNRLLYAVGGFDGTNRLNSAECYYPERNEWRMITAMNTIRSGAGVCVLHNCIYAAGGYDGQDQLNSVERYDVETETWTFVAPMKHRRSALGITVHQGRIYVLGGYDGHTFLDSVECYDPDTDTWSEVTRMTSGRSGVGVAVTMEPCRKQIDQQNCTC

| SMILES | pIC50 [2] | fold induction at 0.4 µM [1] |
| --- | --- | --- |
| CC[C@@H]1CN(Cc2cc([C@H](CC(=O)O)c3ccc4c(nnn4C)c3C)cc3ccsc23)S(=O)(=O)c2cc(Cl)c(F)cc2O1 [Example 23, (3S)-3-(7-{[(4R)-8-Chloro-4-ethyl-7-fluoro-1,1-dioxido-3,4-dihydro-2H-5,1,2-benzoxathiazepin-2-yl]methyl}-1-benzothiophen-5-yl)-3-(1,4-dimethyl-1H-benzotriazol-5-yl)propanoic acid] | ≥ 8.00 | > 5 |
| CC[C@@H]1CN(Cc2cc(C(CC(=O)O)c3ccc4c(nnn4C)c3C)cc3c2CCC3)S(=O)(=O)c2cccnc2O1 (stereo partly drawn) [Example 24, 3-(1,4-Dimethyl-1H-benzotriazol-5-yl)-3-(7-{[(4R)-4-ethyl-1,1-dioxido-3,4-dihydro-2H-pyrido[2,3-b][1,4,5]oxathiazepin-2-yl]methyl}-2,3-dihydro-1H-inden-5-yl)propanoic acid] | 7.52 to 8.00 | > 5 |
| CC[C@@H]1CN(Cc2cc(C(CC(=O)O)c3ccc4c(nnn4C)c3C)cc3c2CCC3)S(=O)(=O)c2ccc3ccccc3c2O1 (stereo partly drawn) [Example 26, 3-(1,4-Dimethyl-1H-benzotriazol-5-yl)-3-(7-{[(2R)-2-ethyl-5,5-dioxido-2,3-dihydro-4H-naphtho[1,2-b][1,4,5]oxathiazepin-4-yl]methyl}-2,3-dihydro-1H-inden-5-yl)propanoic acid] | 7.00 to 7.52 | > 5 |
| CC[C@@H]1CN(Cc2cc([C@H](CC(=O)O)c3cc(Cl)c4c(nnn4C)c3C)cc3ccsc23)S(=O)(=O)c2cc(Cl)cnc2O1 [Example 30, (3S)-3-(7-Chloro-1,4-dimethyl-1H-benzotriazol-5-yl)-3-(7-{[(4R)-8-chloro-4-ethyl-1,1-dioxido-3,4-dihydro-2H-pyrido[2,3-b][1,4,5]oxathiazepin-2-yl]methyl}-1-benzothiophen-5-yl)propanoic acid] | ≥ 8.00 | 3 to 5 |
| CC[C@@H]1CN(Cc2cc([C@@H](CC(=O)O)c3cc(Cl)c4c(nnn4C)c3C)cc3ccsc23)S(=O)(=O)c2cc(Cl)cnc2O1 [Example 31, (3R)-3-(7-Chloro-1,4-dimethyl-1H-benzotriazol-5-yl)-3-(7-{[(4R)-8-chloro-4-ethyl-1,1-dioxido-3,4-dihydro-2H-pyrido[2,3-b][1,4,5]oxathiazepin-2-yl]methyl}-1-benzothiophen-5-yl)propanoic acid] | ≥ 8.00 | > 5 |
| CC[C@@H]1CN(Cc2cc([C@@H](CC(=O)O)c3cc(OC(F)F)c4c(nnn4C)c3C)cc3ccsc23)S(=O)(=O)c2cc(Cl)cnc2O1 [Example 32, (3R)-3-(7-{[(4R)-8-Chloro-4-ethyl-1,1-dioxido-3,4-dihydro-2H-pyrido[2,3-b][1,4,5]oxathiazepin-2-yl]methyl}-1-benzothiophen-5-yl)-3-[7-(difluoromethoxy)-1,4-dimethyl-1H-benzotriazol-5-yl]propanoic acid] | ≥ 8.00 | > 5 |
| CC[C@@H]1CN(Cc2cc([C@@H](CC(=O)O)c3cc(C4CC4)c4c(nnn4C)c3C)cc3ccsc23)S(=O)(=O)c2cc(Cl)cnc2O1 [Example 37, (3R)-3-(7-{[(4R)-8-Chloro-4-ethyl-1,1-dioxido-3,4-dihydro-2H-pyrido[2,3-b][1,4,5]oxathiazepin-2-yl]methyl}-1-benzothiophen-5-yl)-3-(7-cyclopropyl-1,4-dimethyl-1H-benzotriazol-5-yl)propanoic acid] | ≥ 8.00 | 3 to 5 |
| CC[C@@H]1CN(Cc2cc([C@@H](c3ccc4c(nnn4C)c3C)C(C)(C)C(=O)O)cc3c2CCC3)S(=O)(=O)c2cc(Cl)cnc2O1 [Example 38, (3S)-3-(7-{[(4R)-8-Chloro-4-ethyl-1,1-dioxido-3,4-dihydro-2H-pyrido[2,3-b][1,4,5]oxathiazepin-2-yl]methyl}-2,3-dihydro-1H-inden-5-yl)-3-(1,4-dimethyl-1H-benzotriazol-5-yl)-2,2-dimethylpropanoic acid] | ≥ 8.00 | > 5 |
| Cc1c([C@H](CC(=O)O)c2cc3c(c(CN4CC5(CC5)Oc5ncc(Cl)cc5S4(=O)=O)c2)CCC3)ccc2c1nnn2C [Example 42, (3R)-3-{7-[(8′-Chloro-1′,1′-dioxido-spiro[cyclopropane-1,4′-pyrido[2,3-b][1,4,5]oxathiazepine]-2′(3′H)-yl)methyl]-2,3-dihydro-1H-inden-5-yl}-3-(1,4-dimethyl-1H-benzotriazol-5-yl)propanoic acid] | ≥ 8.00 | > 5 |
| Cc1c([C@@H](CC(=O)O)c2cc3c(c(CN4CC5(CC5)Oc5ncc(Cl)cc5S4(=O)=O)c2)CCC3)ccc2c1nnn2C [Example 43, (3S)-3-{7-[(8′-Chloro-1′,1′-dioxido-spiro[cyclopropane-1,4′-pyrido[2,3-b][1,4,5]oxathiazepine]-2′(3′H)-yl)methyl]-2,3-dihydro-1H-inden-5-yl}-3-(1,4-dimethyl-1H-benzotriazol-5-yl)propanoic acid] | ≥ 8.00 | > 5 |
| CC[C@@H]1CN(Cc2cc([C@@H](CC(=O)O)c3cc(C)c4c(nnn4C)c3C)cc3c2CCC3)S(=O)(=O)c2cc(Cl)cnc2O1 [Example 44, (3R)-3-(7-{[(4R)-8-Chloro-4-ethyl-1,1-dioxido-3,4-dihydro-2H-pyrido[2,3-b][1,4,5]oxathiazepin-2-yl]methyl}-2,3-dihydro-1H-inden-5-yl)-3-(1,4,7-trimethyl-1H-benzotriazol-5-yl)propanoic acid] | ≥ 8.00 | 3 to 5 |
| CC[C@@H]1CN(Cc2cc([C@H](CC(=O)O)c3cc(OC(F)(F)F)c4c(nnn4C)c3C)cc3ccsc23)S(=O)(=O)c2cc(Cl)cnc2O1 [Example 46, (3S)-3-(7-{[(4R)-8-Chloro-4-ethyl-1,1-dioxido-3,4-dihydro-2H-pyrido[2,3-b][1,4,5]oxathiazepin-2-yl]methyl}-1-benzothiophen-5-yl)-3-[1,4-dimethyl-7-(trifluoromethoxy)-1H-benzotriazol-5-yl]propanoic acid] | 7.52 to 8.00 | 3 to 5 |

Further lines, with some results ahead:

| pIC50 [2] | SMILES | fold induction at 0.4 µM [1] |
| --- | --- | --- |
| ≥ 8.00 | CC[C@@H]1CN(Cc2cc([C@@H](CC(=O)O)c3ccc4c(nnn4C)c3C)cc3ccsc23)S(=O)(=O)c2cc(Cl)c(F)cc2O1 [Example 22, (3R)-3-(7-{[(4R)-8-Chloro-4-ethyl-7-fluoro-1,1-dioxido-3,4-dihydro-2H-5,1,2-benzoxathiazepin-2-yl]methyl}-1-benzothiophen-5-yl)-3-(1,4-dimethyl-1H-benzotriazol-5-yl)propanoic acid] | > 5 |
| 7.52 to 8.00 | CC[C@@H]1CN(Cc2cc(C(CC(=O)O)c3ccc4c(nnn4C)c3C)cc3c2CCC3)S(=O)(=O)c2cc(C(F)(F)F)cnc2O1 (stereo partly drawn) [Example 25, 3-(1,4-Dimethyl-1H-benzotriazol-5-yl)-3-(7-{[(4R)-4-ethyl-1,1-dioxido-8-(trifluoromethyl)-3,4-dihydro-2H-pyrido[2,3-b][1,4,5]oxathiazepin-2-yl]methyl}-2,3-dihydro-1H-inden-5-yl)propanoic acid] | > 5 |
| ≥ 8.00 | CC[C@@H]1CN(Cc2cc(C(CC(=O)O)c3ccc4c(nnn4C)c3Cl)cc3c2CCC3)S(=O)(=O)c2cc(Cl)cnc2O1 (stereo partly drawn) [Example 29, 3-(7-{[(4R)-8-Chloro-4-ethyl-1,1-dioxido-3,4-dihydro-2H-pyrido[2,3-b][1,4,5]oxathiazepin-2-yl]methyl}-2,3-dihydro-1H-inden-5-yl)-3-(4-chloro-1-methyl-1H-benzotriazol-5-yl)propanoic acid] | > 5 |
| 7.52 to 8.00 | Cc1c(C(CC(=O)O)c2cc3c(c(CN4CC(C)(C)Oc5ncccc5S4(=O)=O)c2)CCC3)ccc2c1nnn2C (stereo not shown) [Example 34, 3-(1,4-Dimethyl-1H-benzotriazol-5-yl)-3-{7-[(4,4-dimethyl-1,1-dioxido-3,4-dihydro-2H-pyrido[2,3-b][1,4,5]oxathiazepin-2-yl)methyl]-2,3-dihydro-1H-inden-5-yl}propanoic acid] | > 5 |
| 7.52 to 8.00 | CC[C@@H]1CN(Cc2cc([C@@H](CC(=O)O)c3cc(C4CC4)c4c(nnn4C)c3C)cc3c2CCC3)S(=O)(=O)c2cc(Cl)cnc2O1 [Example 39, (3R)-3-(7-{[(4R)-8-Chloro-4-ethyl-1,1-dioxido-3,4-dihydro-2H-pyrido[2,3-b][1,4,5]oxathiazepin-2-yl]methyl}-2,3-dihydro-1H-inden-5-yl)-3-(7-cyclopropyl-1,4-dimethyl-1H-benzotriazol-5-yl)propanoic acid] | 3 to 5 |
| 7.52 to 8.00 | CC[C@@H]1CN(Cc2cc([C@H](CC(=O)O)c3cc(C4CC4)c4c(nnn4C)c3C)cc3c2CCC3)S(=O)(=O)c2cc(Cl)cnc2O1 [Example 40, (3S)-3-(7-{[(4R)-8-Chloro-4-ethyl-1,1-dioxido-3,4-dihydro-2H-pyrido[2,3-b][1,4,5]oxathiazepin-2-yl]methyl}-2,3-dihydro-1H-inden-5-yl)-3-(7-cyclopropyl-1,4-dimethyl-1H-benzotriazol-5-yl)propanoic acid] | 3 to 5 |
| ≥ 8.00 | CC[C@@H]1CN(Cc2cc([C@H](CC(=O)O)c3cc(C4CC4)c4c(nnn4C)c3C)cc3ccsc23)S(=O)(=O)c2cc(Cl)cnc2O1 [Example 41, (3S)-3-(7-{[(4R)-8-Chloro-4-ethyl-1,1-dioxido-3,4-dihydro-2H-pyrido[2,3-b][1,4,5]oxathiazepin-2-yl]methyl}-1-benzothiophen-5-yl)-3-(7-cyclopropyl-1,4-dimethyl-1H-benzotriazol-5-yl)propanoic acid] | > 5 |
| ≥ 8.00 | CC[C@@H]1CN(Cc2cc([C@@H](CC(=O)O)c3cc(OC(F)(F)F)c4c(nnn4C)c3C)cc3ccsc23)S(=O)(=O)c2cc(Cl)cnc2O1 [Example 45, (3R)-3-(7-{[(4R)-8-Chloro-4-ethyl-1,1-dioxido-3,4-dihydro-2H-pyrido[2,3-b][1,4,5]oxathiazepin-2-yl]methyl}-1-benzothiophen-5-yl)-3-[1,4-dimethyl-7-(trifluoromethoxy)-1H-benzotriazol-5-yl]propanoic acid] | > 5 |
